From publication PMC7217877, “N-AS-triggered SPMs are direct regulators of microglia in a model of Alzheimer’s disease” (Nature Communications, 2020)

How the values were obtained:
[1] = stability (isomerization) of acetyl sphingosine isomers in phosphate buffer pH 7.4 (LC-ELSD); type: physicochemical
Protocol: To a solution of 1-O-AS (0.25 mg) or 3-O-AS (0.25 mg) in water (400 μl) and DMSO (50 μl) at RT was added sodium phosphate buffer (pH 7.4, 0.1 M, 50 μl). The solution was mixed homogeneously with micropipette and was incubated at 25 °C for 10 min. Reverse-phase HPLC was performed using Agilent 1220 coupled with Agilent 1260 Infinity ELSD. Phenomenex Kinetex 1.7 μm C8 100 A ([…] LC column) at a flow rate of 0.5 ml min^−1 was used. A gradient of acetonitrile with 0.1% formic acid was used as an eluent.

COX2 = experiment: SphK1-mediated COX2 acetylation with [14C] acetyl-CoA (ATP competition, SphK1 mutants; Supplementary Fig 1h,i); type: biochemical, human; conditions: ATP 0-1000 µM as competitor of acetyl-CoA
Source text: Single point mutations in SphK1 (R56A, R57A, R24A, R185A, D178A, and F192A) and COX2 (S565A, N181A, T564A, and S567A) were generated using the In-Fusion Cloning Kits (Clontech) and ORF cDNA expression plasmids of human SphK1 and COX2 gene (Sino Biological Inc, HG15679-NH and HG12036-NH), according to the manufacturer’s instructions. The forward and reverse primers described in Supplementary Table 4. The SphK1 WT, SphK1 mutants, COX2 WT, and COX2 mutant plasmids were transformed in the One shot TOP 10 competent cell (Invitrogen). The bacteria were grown in Luria-Bertani (LB, Invitrogen) plates supplemented with 50 μg ml^−1 kanamycin (Sigma-Aldrich) at 37 °C. The bacterial cell pellets were resuspended in lysis buffer containing 20 mM sodium phosphate (GE Healthcare), 500 mM NaCl (GE Healthcare), 20 mM imidazole (pH 7.4) (GE Healthcare), 0.2 mg ml^−1 lysozyme (Sigma-Aldrich), 20 μg ml^−1 DNase I (Roche), 1 mM MgCl2 (Sigma-Aldrich), and 1 mM PMSF (Sigma-Aldrich) before being lysed by sonication and clarified by centrifugation at 15,493×g for 10 min. Proteins were purified from the soluble fraction using His-Spin Trap columns (GE Healthcare) and the binding and acetylation assays were performed.
Acetylation assays were performed according to previously described procedures with minor modifications. […] N-AS (2 μCi, ARC UK Ltd, ARC-1024) at 37 °C for 2 h. [^14C] aspirin (2 μCi, ARC UK Ltd, ARC-0473) was conducted as the positive control. The reactions were terminated by placing the reaction tubes in ice for 5 min. To evaluate in vivo neuronal and microglial COX2 acetylation, 10 μCi [^14C] N-AS was orally administrated to 9-months-old WT and APP/PS1 mice. After 1 h, neuron and microglia were isolated and sonicated in culture media. To immunoprecipitate acetylated COX2, the sample was incubated with COX2 antibody (Abcam, ab15191) at 4 °C for 24 h and precipitated by adding 50 μl of protein-A sepharose (GE Healthcare). Acetylated COX2 proteins bound to the beads were analyzed using a Tri-Carb 3110TR liquid scintillation counter (Perkin-Elmer).

[2] = tested on: immortalized human microglia; experiment: ac-S565 COX2 in human microglia (western blot, immunofluorescence, Supplementary Fig 6b,c); type: cell-based; conditions: zileuton with N-AS in Aβ-treated human microglia vs without zileuton
Protocol: To confirm the generation and roles of N-AS in neurons, cells from E18 C57BL/6 mice were prepared as previously described. Cortices were dissected and then dissociated followed by incubation in papain (Worthington) at 37 °C for 15 min. Neurons were plated on poly-L-lysine-coated coverslips with neuronal culture medium, serum-free Neurobasal medium (Gibco) containing 2% B27 supplements (Gibco), 1 mM Glutamax supplement (Gibco), and 100 U ml^−1 streptomycin/ 100 U ml^−1 penicillin (Gibco) at 37 °C in a humidified atmosphere of 5% CO2. Aβ 1–42 (10 μM, 24 h, Invitrogen, 03112) was exposed to neurons and the cells were analyzed for the generation and roles of N-AS. Primary astrocyte cultures were prepared from C57BL/6 mice as described previously. In brief, after removal of the meninges, postnatal day 7 (P7) mouse brain tissues were minced and incubated in a rocking water bath at 37 °C for 30 min in the presence of 0.25% trypsin-EDTA (Sigma-Aldrich). Enzyme-digested dissociated cells were triturated with astrocyte-specific medium (DMEM/F12 containing 10% FBS and 1% penicillin-streptomycin) and centrifuged at 155×g for 8 min. The pellet was resuspended in astrocyte-specific medium and passed through a 40-μm cell strainer. The filtrate was allowed pre-adherence for 30 min to remove any contamination from fibroblasts before being seeded in dishes and the addition of astrocyte-specific medium. To split the cells, Ara-C was added to the dishes and they were then placed in a heated shaker for 6–7 h. The medium was removed from the dishes, and trypsin-EDTA was added to the dish and incubated at 37 °C for 5–10 min. After centrifugation at 155×g for 8 min, the supernatant was removed, and the astrocytes were maintained in culture by feeding […] with astrocyte-specific medium. Primary microglia cultures were prepared from C57BL/6 mice as described previously. In brief, the cortices of 2-months-old mice were minced in Hibernate A (Gibco)/B27 supplements (Gibco) medium and dissociated using papain (Worthington) solution. After tissue trituration, cells were separated by Optiprep (Sigma-Aldrich) density gradient centrifugation. Microglia were plated with microglia-specific medium (DMEM/F12 containing 10% FBS and 1% penicillin-streptomycin). The immortalized human microglia (Applied Biologics Materials, T0251) were cultured in PriGrow III (Applied Biologics Materials, TM003) (supplemented with 10% FBS and 1% penicillin-streptomycin) at 37 °C in a humidified atmosphere of 5% CO2. […] The human microglia treated with Aβ 1–42 and/or zileuton was incubated with N-AS (2.5 μM, 2 h, Sigma-Aldrich, 01912), and were analyzed for the generation and roles of N-AS.
Thioflavin S (Sigma-Aldrich) staining was carried out according to previously described procedures. We used 6E10 (mouse, 1:100, Signet, SIG39300), anti-20G10 (mouse, 1:1000, provided by D. R. Howlett, GlaxoSmithKline, Harlow, Essex, UK) for Aβ42, anti-G30 (rabbit, 1:1000, provided by D. R. Howlett) for Aβ40, SMA (mouse, 1:400, Sigma-Aldrich, A2547), AT8 (mouse, 1:500, Thermo Fisher Scientific, MN1020), Caspase-3 (mouse, 1:200, Novus Biologicals, NB100-56708), ac-S565 (rabbit, 1:100), COX2 (mouse, 1:250, Thermo Fisher Scientific, 35-8200), Iba1 (rabbit, 1:500, Wako, 019-19941 and goat, Abcam, ab5076), NeuN (mouse, 1:500, Millipore, MAB177), GFAP (rabbit, 1:500, Dako, N1506 and chicken, 1:500, Abcam, ab4674), and Lamp1 (mouse, 1:200, Abcam, ab24170). The sections were analyzed with a laser-scanning confocal microscope (FV3000; Olympus) or with a BX51 microscope (Olympus). MetaMorph software (Molecular Devices) was used to quantification. Three-dimensional reconstruction of microglia was recorded and analyzed using IMARIS software (Bitplane)[11]. […]

[3] = tested on: immortalized human microglia; experiment: live-cell phagocytosis assay (bead uptake, Supplementary Fig 6e,f); type: cell-based; conditions: zileuton with N-AS in Aβ-treated human microglia
Protocol: Live-cell phagocytosis assays were performed according to previously described procedures with minor modifications. Briefly, in a glass bottom cell culture dish (SPL, 101350), adult SV40 immortalized human microglia cells (Applied Biologics Materials, T0251) were seeded for phagocytosis assay. […] After incubation, the microglia were treated with 0 or 2.5 μM N-AS (Sigma-Aldrich, 01912) at 37 °C for 2 h. FITC beads (Invitrogen) preopsonized in FBS (Gibco) were added at a concentration at 0.01% and then immediately observed using a laser scanning confocal microscope equipped with a live cell chamber system (FV3000, Olympus) for 2 h. Confocal images were collected every 5 min for 2 h and analyzed using the ImageJ software (National Institutes of Health).

[4] = tested on: immortalized human microglia; experiment: LM-SPM profile of human microglia (LC-MS/MS, Supplementary Table 3, Fig 6d); type: cell-based

For `CCCCCCCCCCCCC/C=C/[C@@H](OC(C)=O)[C@@H](N)CO.O=C(O)C(F)(F)F` [3-O-AS, (2S,3R,E)-3-Acetoxy-1-hydroxyoctadec-4-en-2-aminium trifluoroacetate], which “time to isomerization to N-AS” value [1] is on record?
The value was “less than 10 min”.

For `CCCCCCCCCCCCC/C=C/[C@@H](O)[C@@H](N)COC(C)=O.O=C(O)C(F)(F)F` [1-O-AS, (2S,3R,E)-1-Acetoxy-3-hydroxyoctadec-4-en-2-aminium trifluoroacetate], which “time to isomerization to N-AS” value [1] is on record?
Its value is “less than 10 min”.

With `Nc1ncnc2c1ncn2[C@@H]1O[C@H](COP(=O)(O)OP(=O)(O)OP(=O)(O)O)[C@@H](O)[C@H]1O` [ATP] as the compound, how does the “SphK1-mediated COX2 acetylation, in words” value (COX2) read?
The value was “inhibited in a concentration dependent manner”.

Which “N-AS-induced COX2 acetylation, in words” value [2] does the source give for `CC(c1cc2ccccc2s1)N(O)C(N)=O` (centres unmarked) [zileuton, reference compound] here?
Its value is “no significant”.

And the “restoration of phagocytic capacity, in words” value [3]?
The value was “inhibited”.

What about the “LTB4, in words” value ([4]; zileuton treatment) of the same compound?
Its value is “LTB4 was not detected”.

What about the “PGE2, in words” value ([4]; zileuton treatment) of the same compound?
Its value is “reduced PGE2”.

What about the “production of N-AS-triggered SPMs, in words” value ([4]; zileuton with N-AS in Aβ-treated human microglia) of the same compound?
The value was “inhibited”.
